Experiment [1] deals with Staphylococcus aureus. Kind of experiment: Antibacterial activity against Staphylococcus aureus ATCC 25923 by micro dilution method. The class given is functional.
Experiment [2] relates to Staphylococcus epidermidis. Kind of experiment: Antibacterial activity against Staphylococcus epidermidis isolate 533 by micro dilution method. The class given is functional.
Experiment [3] has as its system Staphylococcus aureus. The experiment can be described thus: Antibacterial activity against Staphylococcus aureus isolate 10 by micro dilution method. The class given is functional.
The test system of experiment [4] is Staphylococcus aureus. Kind of experiment: Antibacterial activity against Staphylococcus aureus isolate 3797 by micro dilution method. The class given is functional.
In experiment [5] the test system is Staphylococcus aureus. The experiment can be described thus: Antibacterial activity against Staphylococcus aureus isolate 3798 by micro dilution method. The class given is functional.
Experiment [6] deals with Staphylococcus aureus. The experiment can be described thus: Antibacterial activity against Staphylococcus aureus isolate 1025 by micro dilution method. The class given is functional.
Experiment [7] relates to Enterococcus faecium. The experiment can be described thus: Antibacterial activity against Enterococcus faecium isolate 568 by micro dilution method. The class given is functional.
The test system of experiment [8] is Enterococcus faecium. Kind of experiment: Antibacterial activity against Enterococcus faecium isolate 569 by micro dilution method. The class given is functional.
In another experiment the test system is Enterococcus faecalis. The experiment can be described thus: Antibacterial activity against Enterococcus faecalis isolate 560 by micro dilution method. The class given is functional.
Another experiment concerns Streptococcus pneumoniae. Kind of experiment: Antibacterial activity against Streptococcus pneumoniae ATCC 49619 by micro dilution method. The class given is functional.
Another experiment concerns Enterococcus gallinarum. Kind of experiment: Antibacterial activity against Streptococcus gallinarum ATCC 35038 by micro dilution method. The class given is functional.
The subject of the next experiment is Streptococcus agalactiae. Kind of experiment: Antibacterial activity against Streptococcus agalactiae isolate 52 by micro dilution method. The class given is functional.
Experiment [9] relates to Escherichia coli. The experiment can be described thus: Antibacterial activity against Escherichia coli ATCC 25922 by micro dilution method. The class given is functional.
The next experiment deals with Salmonella typhimurium. Kind of experiment: Antibacterial activity against Salmonella choleraesuis ATCC 14028 by micro dilution method. The class given is functional, Salmonella enterica subsp. enterica serovar Typhimurium. Particulars: Salmonella enterica.
The subject of a further experiment is Klebsiella pneumoniae. Kind of experiment: Antibacterial activity against Klebsiella pneumoniae ATCC 13883 by micro dilution method. The class given is functional.
For experiment [10], the system named is Escherichia coli. Kind of experiment: Induction of translation arrest in tolC-deficient Escherichia coli harboring pRFPCER-TrpL2A assessed as increase in pRFPCER-TrpL2A reporter activity at 10 mg/ml after overnight incubation by dual fluorescent-reporter gene assay. The class given is functional, organism-based.

This is an account of results in ChEMBL document CHEMBL4308894, “Synthesis and evaluation of biological activity for dual-acting antibiotics on the basis of azithromycin and glycopeptides” (Bioorg Med Chem Lett, 2019).

Values after ≈ are worked out from the molar mass of the structure shown. Active and inactive are the calls of the source. The rule behind the calls is not given here.

For `CC[C@H]1OC(=O)[C@H](C)[C@@H](O[C@H]2C[C@@](C)(OC)[C@@H](OC(=O)NCCNC(=O)[C@H]3NC(=O)[C@H]4NC(=O)[C@H](NC(=O)[C@@H]5NC(=O)C6NC(=O)[C@@H](Cc7ccc(c(Cl)c7)Oc7cc5cc(c7O)Oc5ccc(cc5Cl)[C@H]4O)NC(=O)[C@H](N)c4ccc(O)c(c4)Oc4cc(O)cc6c4)c4ccc(O)c(c4)-c4c(O)cc(O)cc43)[C@H](C)O2)[C@H](C)[C@@H](O[C@@H]2O[C@H](C)C[C@H](N(C)C)[C@H]2O)[C@](C)(O)C[C@@H](C)CN(C)[C@H](C)[C@H]2OC(=O)O[C@]21C`, the MIC with Staphylococcus aureus [1] was 1 µg/mL (≈ 0.49 µM); in [2], 0.5 µg/mL (≈ 0.245 µM); against Staphylococcus aureus [3], 0.06 µg/mL (≈ 0.0294 µM); in the experiment with Staphylococcus aureus [4], 1 µg/mL (≈ 0.49 µM); in the experiment on Staphylococcus aureus [5], 32 µg/mL (≈ 15.7 µM); in the experiment with Staphylococcus aureus [6], greater than 32 µg/mL. Also, the MIC in the experiment on Enterococcus faecium [7] came out at 0.13 µg/mL (≈ 0.0637 µM); with Enterococcus faecium [8], 8 µg/mL (≈ 3.92 µM); against Enterococcus faecalis, 16 µg/mL (≈ 7.84 µM); in the experiment on Streptococcus pneumoniae, 0.5 µg/mL (≈ 0.245 µM); with Enterococcus gallinarum, 2 µg/mL (≈ 0.979 µM); in the experiment on Streptococcus agalactiae, 32 µg/mL (≈ 15.7 µM). The MIC with Escherichia coli [9], in the experiment on Salmonella typhimurium and against Klebsiella pneumoniae was greater than 32 µg/mL each time. The result in the experiment on Escherichia coli [10] was inactive.

Take `CC[C@H]1OC(=O)[C@H](C)[C@@H](O[C@H]2C[C@@](C)(OC)[C@@H](O)[C@H](C)O2)[C@H](C)[C@@H](O[C@@H]2O[C@H](C)C[C@H](N(C)C)[C@H]2O)[C@](C)(O)C[C@@H](C)C(=O)[C@H](C)[C@@H](O)[C@]1(C)O`: the result with Escherichia coli [10] was Active.

Consider `CC[C@H]1OC(=O)[C@H](C)[C@@H](O[C@H]2C[C@@](C)(OC)[C@@H](OC(=O)NCCCNC(=O)[C@H]3NC(=O)[C@H]4NC(=O)[C@H](NC(=O)[C@@H]5NC(=O)[C@H](CC(N)=O)NC(=O)[C@H](NC(=O)[C@@H](CC(C)C)NC)[C@H](O)c6ccc(c(Cl)c6)Oc6cc5cc(c6O[C@@H]5O[C@H](CO)[C@@H](O)[C@H](O)[C@H]5O[C@H]5C[C@](C)(N)[C@H](O)[C@H](C)O5)Oc5ccc(cc5Cl)[C@H]4O[C@H]4C[C@](C)(N)[C@@H](O)[C@H](C)O4)c4ccc(O)c(c4)-c4c(O)cc(O)cc43)[C@H](C)O2)[C@H](C)[C@@H](O[C@@H]2O[C@H](C)C[C@H](N(C)C)[C@H]2O)[C@](C)(O)C[C@@H](C)CN(C)[C@H](C)[C@H]2OC(=O)O[C@]21C`, for which the MIC with Staphylococcus aureus [1] stood at 1 µg/mL (≈ 0.408 µM); in experiment [2] it was 1 µg/mL (≈ 0.408 µM); in the experiment on Staphylococcus aureus [3], 0.06 µg/mL (≈ 0.0245 µM); in the experiment on Staphylococcus aureus [4] it was 4 µg/mL (≈ 1.63 µM); in the experiment with Staphylococcus aureus [5], 4 µg/mL (≈ 1.63 µM); against Staphylococcus aureus [6], 16 µg/mL (≈ 6.53 µM). In addition, the MIC was found to be 0.5 µg/mL (≈ 0.204 µM) in the experiment with Enterococcus faecium [7]; 4 µg/mL (≈ 1.63 µM) in the experiment with Enterococcus faecium [8]; 8 µg/mL (≈ 3.27 µM) with Enterococcus faecalis; 1 µg/mL (≈ 0.408 µM) against Streptococcus pneumoniae; 2 µg/mL (≈ 0.816 µM) with Enterococcus gallinarum; 4 µg/mL (≈ 1.63 µM) in the experiment on Streptococcus agalactiae. The MIC with Escherichia coli [9], against Salmonella typhimurium and in the experiment on Klebsiella pneumoniae was greater than 32 µg/mL each time. Also, in the experiment with Escherichia coli [10], the result was inactive.

`CC[C@H]1OC(=O)[C@H](C)[C@@H](O[C@H]2C[C@@](C)(OC)[C@@H](OC(=O)NCCNC(=O)[C@H]3NC(=O)[C@H]4NC(=O)[C@H](NC(=O)[C@@H]5NC(=O)[C@H](CC(N)=O)NC(=O)[C@H](NC(=O)[C@@H](CC(C)C)NC)[C@H](O)c6ccc(c(Cl)c6)Oc6cc5cc(c6O[C@@H]5O[C@H](CO)[C@@H](O)[C@H](O)[C@H]5O[C@H]5C[C@](C)(N)[C@H](O)[C@H](C)O5)Oc5ccc(cc5Cl)[C@H]4O)c4ccc(O)c(c4)-c4c(O)cc(O)cc43)[C@H](C)O2)[C@H](C)[C@@H](O[C@@H]2O[C@H](C)C[C@H](N(C)C)[C@H]2O)[C@](C)(O)C[C@@H](C)CN(C)[C@H](C)[C@H]2OC(=O)O[C@]21C`: the minimal inhibitory concentration (MIC) with Staphylococcus aureus [1] is 1 µg/mL (≈ 0.436 µM); in experiment [2], 1 µg/mL (≈ 0.436 µM); against Staphylococcus aureus [3], 1 µg/mL (≈ 0.436 µM); against Staphylococcus aureus [4], 4 µg/mL (≈ 1.74 µM); with Staphylococcus aureus [5], greater than 32 µg/mL; against Staphylococcus aureus [6], greater than 32 µg/mL. Further, the MIC is 1 µg/mL (≈ 0.436 µM) in the experiment with Enterococcus faecium [7]; greater than 32 µg/mL against Enterococcus faecium [8]; 32 µg/mL (≈ 14 µM) in the experiment on Enterococcus faecalis; 1 µg/mL (≈ 0.436 µM) in the experiment with Streptococcus pneumoniae; 4 µg/mL (≈ 1.74 µM) in the experiment on Enterococcus gallinarum; 32 µg/mL (≈ 14 µM) against Streptococcus agalactiae. Further, the minimal inhibitory concentration (MIC) in the experiment with Escherichia coli [9], against Salmonella typhimurium and with Klebsiella pneumoniae was greater than 32 µg/mL throughout. For the same compound, the result in the experiment with Escherichia coli [10] was Active.

`CC[C@H]1OC(=O)[C@H](C)[C@@H](O[C@H]2C[C@@](C)(OC)[C@@H](OC(=O)NCCCNC(=O)[C@H]3NC(=O)[C@H]4NC(=O)[C@H](NC(=O)[C@@H]5NC(=O)[C@H](CC(N)=O)NC(=O)[C@H](NC(=O)[C@@H](CC(C)C)NC)[C@H](O)c6ccc(c(Cl)c6)Oc6cc5cc(c6O[C@@H]5O[C@H](CO)[C@@H](O)[C@H](O)[C@H]5O[C@H]5C[C@](C)(N)[C@H](O)[C@H](C)O5)Oc5ccc(cc5Cl)[C@H]4O)c4ccc(O)c(c4)-c4c(O)cc(O)cc43)[C@H](C)O2)[C@H](C)[C@@H](O[C@@H]2O[C@H](C)C[C@H](N(C)C)[C@H]2O)[C@](C)(O)C[C@@H](C)CN(C)[C@H](C)[C@H]2OC(=O)O[C@]21C`: the MIC with Staphylococcus aureus [1] is 2 µg/mL (≈ 0.867 µM); in experiment [2], 2 µg/mL (≈ 0.867 µM); in the experiment on Staphylococcus aureus [3], 1 µg/mL (≈ 0.434 µM); in the experiment on Staphylococcus aureus [4], 4 µg/mL (≈ 1.73 µM); in the experiment on Staphylococcus aureus [5], greater than 32 µg/mL; in the experiment with Staphylococcus aureus [6], greater than 32 µg/mL. In addition, the minimal inhibitory concentration (MIC) was 1 µg/mL (≈ 0.434 µM) with Enterococcus faecium [7]; greater than 32 µg/mL in the experiment with Enterococcus faecium [8]; 32 µg/mL (≈ 13.9 µM) against Enterococcus faecalis; 1 µg/mL (≈ 0.434 µM) against Streptococcus pneumoniae; 4 µg/mL (≈ 1.73 µM) in the experiment with Enterococcus gallinarum; 32 µg/mL (≈ 13.9 µM) against Streptococcus agalactiae. Moreover, the MIC in the experiment with Escherichia coli [9], against Salmonella typhimurium and in the experiment with Klebsiella pneumoniae was greater than 32 µg/mL each time. In addition, the outcome in the experiment with Escherichia coli [10] was inactive.
